Experimental data reported in US11505569B2, “GalNAc phosphoramidites, nucleic acid conjugates thereof and their use” (Hoffmann-La Roche, Inc., priority 2014, dated 2022).
Strand notation (5' to 3'): a small letter for the sugar, then the base; units joined by * are phosphorothioate-linked, units joined directly phosphodiester-linked; [ ] holds rarer units or linkages, { } end groups; capitals alone tell only the bases. l = locked nucleic acid (LNA); [5mC] = 5-methylcytosine; d = 2'-deoxy (DNA)

Test system: ApoB mRNA
Experiment: Knock down of ApoB mRNA in vivo (qPCR on liver and kidney RNA)
Conditions: C57BL6/J mice, single sc dose 0.25 mg/kg GalNAc2 or equimolar amounts; for down regulation of ApoB mRNA in kidney: sacrificed at day 10, kidney, qPCR (FIG. 7B); for ApoB mRNA knock down in the liver: sacrificed at day 10, liver, qPCR (FIG. 7A)
Procedure: To compare the effect of different GalNAc constructs C57BL6/J mice were injected sc with a single dose saline or 0.25 mg/kg GalNAc2 cluster conjugated LNA-antisense oligonucleotide (GalNAc2) or equimolar amounts of LNA antisense oligonucleotides conjugated to the GalNAc constructs of the invention (FIGS. 6 E, I, M and N) or unconjugated LNA antisense oligonucleotide (see Example 2, table 1 for details) and sacrificed at days 10 where liver and kidney were isolated.
At sacrifice RNA was isolated from liver and kidney and subjected to qPCR with ApoB specific primers and probe to analyze for ApoB mRNA knockdown as described in the protocol below.
The animals were anaesthetised with 70% CO2-30% O2 and sacrificed by cervical dislocation. One half of the large liver lobe and one kidney were minced and submerged in RNAlater.
Total RNA was extracted from a maximum of 30 mg of tissue/sample, homogenized by bead-milling in the presence of lysis buffer (MagnaPure LC RNA Isolation Tissue buffer (#03604721001; Roche)) according to the manufacturer's instructions. The RNA was purified on a MagnaPure 96 System; Roche using Cellular RNA Large Volume Kit (#05467535001; Roche) using the manufacturer's standard protocol. First strand synthesis was performed using Reverse Transcriptase reagents from Ambion according to the manufacturer's instructions.
For each sample 0.5 μg total RNA was adjusted to (10.8 μl) with RNase free H2O and mixed with 2 μl random decamers (50 μM) and 4 μl dNTP mix (2.5 mM each dNTP) and heated to 70° C. for 3 min after which the samples were rapidly cooled on ice. 2 μl 10× Buffer RT, 1 μl MMLV Reverse Transcriptase (100 U/μl) and 0.25 μl RNase inhibitor (10 U/μl) were added to each sample, followed by incubation at 42° C. for 60 min, heat inactivation of the enzyme at 95° C. for 10 min and then the sample was cooled to 4° C. cDNA samples were diluted 1:5 and subjected to RT-QPCR using Taqman Fast Universal PCR Master Mix 2× (Applied Biosystems Cat #4364103) and Taqman gene expression assay (mApoB, Mn01545150_ml and mGAPDH #4352339E) following the manufacturers protocol and processed in an Applied Biosystems RT-qPCR instrument (7500/7900 or ViiA7) in fast mode.

Substance	down regulation of ApoB mRNA in kidney	ApoB mRNA knock down in the liver
M: trivalent GalNAc construct with spacer, chain length 16, conjugated to oligonucleotide SEQ ID NO: 2 (antisense CAGCATTGGTATTCA; sugars from the 5' end d2 l2 d8 l3, [5mC] at 4, 14, backbone not given here; further chemistry not fully specified)	higher for the unconjugated LNA oligonucleotide (control) than for the GalNAc conjugated compounds	comparable effect on the target mRNA (ApoB mRNA) to the GalNAc2 cluster
N: trivalent GalNAc construct with spacer, chain length 30, conjugated to oligonucleotide SEQ ID NO: 2 (antisense CAGCATTGGTATTCA; sugars from the 5' end d2 l2 d8 l3, [5mC] at 4, 14, backbone not given here; further chemistry not fully specified)	higher for the unconjugated LNA oligonucleotide (control) than for the GalNAc conjugated compounds	comparable effect on the target mRNA (ApoB mRNA) to the GalNAc2 cluster
I: trivalent GalNAc construct, chain length 16, conjugated to oligonucleotide SEQ ID NO: 2 (antisense CAGCATTGGTATTCA; sugars from the 5' end d2 l2 d8 l3, [5mC] at 4, 14, backbone not given here; trivalent GalNAc conjugate, first linkages phosphodiester)	higher for the unconjugated LNA oligonucleotide (control) than for the GalNAc conjugated compounds	comparable effect on the target mRNA (ApoB mRNA) to the GalNAc2 cluster
Control: unconjugated oligonucleotide of SEQ ID NO: 1 (5′G^mCattggtatT^mCA-3′), without any GalNAc moieties attached (DNA GCATTGGTATTCA; LNA modifications, chemistry not fully specified) [reference compound]	higher	
E: trivalent GalNAc construct, chain length 10, conjugated to oligonucleotide SEQ ID NO: 2 (5′ caG^mCattggtatT^mCA-3′) (antisense CAGCATTGGTATTCA; sugars from the 5' end d2 l2 d8 l3, [5mC] at 4, 14, backbone not given here; trivalent GalNAc conjugate, first linkages phosphodiester)	higher for the unconjugated LNA oligonucleotide (control) than for the GalNAc conjugated compounds	comparable effect on the target mRNA (ApoB mRNA) to the GalNAc2 cluster
GalNAc2: SEQ ID NO: 1 attached to the GalNAc2 cluster by a phospothioate group; SEQ ID NO: 20 in WO 2014/076196 (antisense lG*l[5mC]*dA*dT*dT*dG*dG*dT*dA*dT*lT*l[5mC]*lA; GalNAc2 cluster attached via phosphorothioate, end not given here) [reference compound]	higher for the unconjugated LNA oligonucleotide (control) than for the GalNAc conjugated compounds	
